Here are results for one substance from patent US20160017273A1, “SPERM SELECTION UNIT STRUCTURE, SPERM SCREENING DEVICE PROVIDED WITH SPERM SELECTION UNIT STRUCTURE, AND METHOD OF PREPARING SEMEN FOR FERTILIZATION” (NATIONAL INSTITUTE OF ADVANCED INDUSTRIAL SCIENCE AND …, priority 2013, published 2016).

This assay deals with sperm of thawed frozen semen. Nature of the assay: ratio between X sperm and Y sperm (real time PCR) in semen recovered by the sperm screening device after the sperm preservation step with a phenoxazine compound. The format is cell-based, Holstein cattle. Conditions: 25 μM brilliant cresyl blue + 5 mM glucose-6-phosphate, no electron accepting substance added, 5% CO2. The method, then: Frozen semen of WHO OCEANIC JOVIAN ET (Holstein cattle) was thawed in accordance with the predetermined steps, 200 μl of thawed semen was sampled and was put into a tube having a capacity of 1.5 ml. Then, semen was subjected to the centrifugal separation (7 minutes, 2000 rpm), and a half of supernatant of the semen after being subjected to the centrifugal separation was thrown away and approximately 1004 of semen was left in the tube.
An approximately 100 μL of buffer solution (obtained by adding 6 mg/mL BSA+10 μg/mL of gentamycin+5 mM EGTA to the commercially available “SP-TALP” solution) is added into the tube, the buffer solution is stirred lightly and, thereafter, the buffer solution was incubated for 50 minutes at 37° with 5% CO2.
Next, the tube was subjected to the centrifugal separation again (7 minutes, 2000 rpm), and a supernatant of the solution was thrown away, and an approximately 100 μL of buffer solution (obtained by adding 6 mg/mL BSA+10 […] to the commercially available “SP-TALP” solution; not containing EGTA) was added into the tube and, thereafter, the solution was stirred lightly.
The tube was subjected to the centrifugal separation again (7 minutes, 2000 rpm), and 100 μL of a supernatant of the solution was thrown away, and an approximately 100 μL of buffer solution (obtained by adding 6 mg/mL BSA+10 μg/mL gentamycin +25 μM brilliant cresyl blue +5 mM glucose-6-phosphate to the commercially available “SP-TALP” solution) was added into the tube and, thereafter, the solution was incubated at 37° C. with 5% CO2 (sperm preservation step). […]
Thereafter, sperm having high motility were recovered by using the sperm screening device according to this embodiment. Then, with respect to the acquired semen for artificial insemination, a ratio between X sperm and Y sperm was investigated using a real time PCR method.
(In qPCR the cycle at which signal appears reflects the starting amount.)

[1] abbreviates: incubation 30 minutes at 37° C.
The mark [2] stands for this setting: incubation 50 minutes at 37° C.

brilliant cresyl blue: under setting [1], the “ratio of X sperm” value is 39% and the “ratio of Y sperm” value turned out to be 61%. Besides, under setting [2], the “ratio of X sperm” value is given as 35% and the “ratio of Y sperm” value was found to be 65%.
